This is an account of results in patent US8735406B2, “8-oxodihydropurine derivative” (Dainippon Sumitomo Pharma Co., Ltd., priority 2009, dated 2014).

In the test the target is T1, FAAH (Rattus norvegicus, UniProt P97612).
T1 construct: Preparation of Rat Brain Membranes Preparations (FAAH Enzyme Solution); from tissue; host or cells: rat cerebrum (brain membrane preparation)
T1 sequence (P97612 1-579): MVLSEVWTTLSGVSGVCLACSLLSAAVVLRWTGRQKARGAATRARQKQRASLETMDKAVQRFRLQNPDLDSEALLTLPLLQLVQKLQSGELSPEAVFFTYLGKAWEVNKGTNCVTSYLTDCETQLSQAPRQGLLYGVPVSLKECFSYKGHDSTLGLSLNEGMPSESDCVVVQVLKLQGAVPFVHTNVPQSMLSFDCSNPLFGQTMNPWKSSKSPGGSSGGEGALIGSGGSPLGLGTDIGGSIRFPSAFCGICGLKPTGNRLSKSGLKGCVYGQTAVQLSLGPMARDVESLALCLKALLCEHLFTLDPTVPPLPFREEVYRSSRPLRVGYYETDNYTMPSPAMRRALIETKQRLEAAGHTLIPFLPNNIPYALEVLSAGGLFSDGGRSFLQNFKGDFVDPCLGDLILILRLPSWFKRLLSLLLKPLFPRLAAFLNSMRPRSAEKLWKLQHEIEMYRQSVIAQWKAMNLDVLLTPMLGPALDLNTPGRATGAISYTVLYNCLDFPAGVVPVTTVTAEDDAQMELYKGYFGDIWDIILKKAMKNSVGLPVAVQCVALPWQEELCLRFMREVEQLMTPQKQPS
The test can be described thus: Determination of FAAH inhibitory activity in rat (rat brain membrane preparations, [3H]-anandamide hydrolysis). The test is classed as biochemical. To be noted: rat brain membrane preparations; for inhibition at 0.1 µM: 100 nM test substance, read-out: FAAH Inhibition, Inhibition Rate at 100 nM; for pIC50: test substance 0.1 nM to 1 μM, read-out: FAAH Inhibition IC50. An outline of the steps:
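Rat cerebrum membranes (100 μg/mL protein) preincubated 10 min at 37 °C with compound (1% DMSO) in pH 7.6 Tris buffer with 1.5% BSA. Substrate 2 nM [3H]-anandamide plus 2 μM anandamide added for 10 min at 37 °C. [3H]-ethanolamine in the aqueous phase after chloroform/methanol extraction was scintillation counted; IC50 over 0.1 nM–1 μM.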

Each structure is given as a SMILES string. pIC50: −log10 of the molar value.

With `COc1cccc(-c2ncc3c(n2)n(C)c(=O)n3C(=O)N(C)CCOCC2CC2)c1` [Example 116, N-[2-(Cyclopropylmethoxy)ethyl]-2-(3-methoxyphenyl)-N,9-dimethyl-8-oxo-8,9-dihydro-7H-purine-7-carboxamide], the inhibition at 0.1 µM was determined as 110% and the pIC50 is 8.70.

Consider `COc1cccc(-c2ncc3c(n2)n(C)c(=O)n3C(=O)N(C)CCC2CCOCC2)c1` [Example 117, 2-(3-Methoxyphenyl)-N,9-dimethyl-8-oxo-N-[2-(tetrahydro-2H-pyran-4-yl)ethyl]-8,9-dihydro-7H-purine-7-carboxamide], for which the inhibition at 0.1 µM stood at 107% and the pIC50 was 8.40.

Consider `COc1ccc(CCC2CCN(C(=O)n3c(=O)n(C)c4nc(-c5cccc(OC)c5)ncc43)CC2)cc1` [Example 118, 2-(3-Methoxyphenyl)-7-({4-[2-(4-methoxyphenyl)ethyl]piperidin-1-yl}carbonyl)-9-methyl-7,9-dihydro-8H-purine-8-one], for which the inhibition at 0.1 µM stood at 103% and the negative-log IC50 (pIC50) was 8.30.

Consider `COCCC1CCN(C(=O)n2c(=O)n(C)c3nc(-c4cccc(OC)c4)ncc32)CC1` [Example 119, 7-{[4-(2-Methoxyethyl)piperidin-1-yl]carbonyl}-2-(3-methoxyphenyl)-9-methyl-7,9-dihydro-8H-purine-8-one], for which the inhibition at 0.1 µM was determined as 100% and the pIC50 is 8.15.

Turning to `Cn1c(=O)n(C(=O)N2CCN(c3ccccc3)CC2)c2cnc(-c3ccccc3)nc21` [Example 120, 9-Methyl-2-phenyl-7-[(4-phenylpiperazin-1-yl)carbonyl]-7,9-dihydro-8H-purine-8-one], the inhibition at 0.1 µM stood at 101% and the pIC50 is 7.96.

Regarding `COc1cccc(N2CCN(C(=O)n3c(=O)n(C)c4nc(-c5ccccc5)ncc43)CC2)c1` [Example 121, 7-{[4-(3-Methoxyphenyl)piperazin-1-yl]carbonyl}-9-methyl-2-phenyl-7,9-dihydro-8H-purine-8-one], the inhibition at 0.1 µM was 98% and the pIC50 is 7.38.

With `COc1ccccc1N1CCN(C(=O)n2c(=O)n(C)c3nc(-c4ccccc4)ncc32)CC1` [Example 122, 7-{[4-(2-Methoxyphenyl)piperazin-1-yl]carbonyl}-9-methyl-2-phenyl-7,9-dihydro-8H-purine-8-one], the inhibition at 0.1 µM stood at 97% and the pIC50 was 7.46.

Regarding `Cn1c(=O)n(C(=O)N2CCN(c3ccc(F)cc3)CC2)c2cnc(-c3ccccc3)nc21` [Example 123, 7-{[4-(4-Fluorophenyl)piperazin-1-yl]carbonyl}-9-methyl-2-phenyl-7,9-dihydro-8H-purine-8-one], the inhibition at 0.1 µM is 101% and the pIC50 is 8.40.

As to `Cn1c(=O)n(C(=O)N2CCN(c3cccc(F)c3)CC2)c2cnc(-c3ccccc3)nc21` [Example 124, 7-{[4-(3-Fluorophenyl)piperazin-1-yl]carbonyl}-9-methyl-2-phenyl-7,9-dihydro-8H-purine-8-one], the inhibition at 0.1 µM was 101% and the pIC50 was 8.22.

Take `Cn1c(=O)n(C(=O)N2CCN(c3ccccc3F)CC2)c2cnc(-c3ccccc3)nc21` [Example 125, 7-{[4-(2-Fluorophenyl)piperazin-1-yl]carbonyl}-9-methyl-2-phenyl-7,9-dihydro-8H-purine-8-one]: the inhibition at 0.1 µM turned out to be 96% and the pIC50 is 7.52.

`Cn1c(=O)n(C(=O)N2CCN(c3ccc(Cl)cc3)CC2)c2cnc(-c3ccccc3)nc21` [Example 126, 7-{[4-(4-Chlorophenyl)piperazin-1-yl]carbonyl}-9-methyl-2-phenyl-7,9-dihydro-8H-purine-8-one]: the inhibition at 0.1 µM stood at 99% and the pIC50 is 8.15.

`Cn1c(=O)n(C(=O)N2CCN(c3ccccc3Cl)CC2)c2cnc(-c3ccccc3)nc21` [Example 127, 7-{[4-(2-Chlorophenyl)piperazin-1-yl]carbonyl}-9-methyl-2-phenyl-7,9-dihydro-8H-purine-8-one]: the inhibition at 0.1 µM turned out to be 94% and the pIC50 was 7.30.

In the case of `Cc1ccc(N2CCN(C(=O)n3c(=O)n(C)c4nc(-c5ccccc5)ncc43)CC2)cc1` [Example 128, 9-Methyl-7-{[4-(4-methylphenyl)piperazin-1-yl]carbonyl}-2-phenyl-7,9-dihydro-8H-purine-8-one], the inhibition at 0.1 µM was 99% and the pIC50 is 8.15.

In the case of `Cc1cccc(N2CCN(C(=O)n3c(=O)n(C)c4nc(-c5ccccc5)ncc43)CC2)c1` [Example 129, 9-Methyl-7-{[4-(3-methylphenyl)piperazin-1-yl]carbonyl}-2-phenyl-7,9-dihydro-8H-purine-8-one], the inhibition at 0.1 µM turned out to be 98% and the pIC50 is 8.15.

Consider `Cc1ccccc1N1CCN(C(=O)n2c(=O)n(C)c3nc(-c4ccccc4)ncc32)CC1` [Example 130, 9-Methyl-7-{[4-(2-methylphenyl)piperazin-1-yl]carbonyl}-2-phenyl-7,9-dihydro-8H-purine-8-one], for which the inhibition at 0.1 µM was determined as 94% and the pIC50 was 7.38.

Regarding `CCOc1ccc(N2CCN(C(=O)n3c(=O)n(C)c4nc(-c5ccccc5)ncc43)CC2)cc1` [Example 131, 7-{[4-(4-Ethoxyphenyl)piperazin-1-yl]carbonyl}-9-methyl-2-phenyl-7,9-dihydro-8H-purine-8-one], the inhibition at 0.1 µM came out at 99% and the pIC50 was 8.40.

Turning to `Cn1c(=O)n(C(=O)N2CCN(c3ccc(C#N)cc3)CC2)c2cnc(-c3ccccc3)nc21` [Example 132, 4-{4-[(9-Methyl-8-oxo-2-phenyl-8,9-dihydro-7H-purine-7-yl)carbonyl]piperazin-1-yl}benzonitrile], the inhibition at 0.1 µM amounted to 99% and the pIC50 is 8.22.

Regarding `CC(=O)c1ccc(N2CCN(C(=O)n3c(=O)n(C)c4nc(-c5ccccc5)ncc43)CC2)cc1` [Example 133, 7-{[4-(4-Acetylphenyl)piperazin-1-yl]carbonyl}-9-methyl-2-phenyl-7,9-dihydro-8H-purine-8-one], the inhibition at 0.1 µM was determined as 100% and the negative logarithm of the IC50 (pIC50) was 8.22.

Turning to `Cn1c(=O)n(C(=O)N2CCN(c3ccc(C(F)(F)F)cc3)CC2)c2cnc(-c3ccccc3)nc21` [Example 134, 9-Methyl-2-phenyl-7-({4-[4-(trifluoromethyl)phenyl]piperazin-1-yl}carbonyl)-7,9-dihydro-8H-purine-8-one], the inhibition at 0.1 µM was 96% and the pIC50 was 8.15.

For the compound `COc1ccc(N2CCN(C(=O)n3c(=O)n(C)c4nc(-c5ccccc5)ncc43)CC2)cc1` [Example 135, 7-{[4-(4-Methoxyphenyl)piperazin-1-yl]carbonyl}-9-methyl-2-phenyl-7,9-dihydro-8H-purine-8-one], the inhibition at 0.1 µM is 99% and the pIC50 is 8.30.

For the compound `COc1cccc(-c2ncc3c(n2)n(C)c(=O)n3C(=O)N2CCN(c3ccc(F)cc3)CC2)c1` [Example 136, 7-{[4-(4-Fluorophenyl)piperazin-1-yl]carbonyl}-2-(3-methoxyphenyl)-9-methyl-7,9-dihydro-8H-purine-8-one], the inhibition at 0.1 µM came out at 99% and the pIC50 was 8.52.

On to `COc1cccc(-c2ncc3c(n2)n(C)c(=O)n3C(=O)N2CCN(c3cccc(F)c3)CC2)c1` [Example 137, 7-{[4-(3-Fluorophenyl)piperazin-1-yl]carbonyl}-2-(3-methoxyphenyl)-9-methyl-7,9-dihydro-8H-purine-8-one], for which the inhibition at 0.1 µM came out at 98% and the pIC50 was 8.30.

In general, inhibition refers to the relative decrease from the control value, in per cent. For orientation: pIC50 means the negative decadic logarithm of the IC50, by convention in mol/L.
